Reference: patent publication US9358247B2, “Methods and compositions for promoting activity of anti-cancer therapies” (Oncology Research International Limited, priority 2006, dated 2016)

What was measured:
Format in all cases: cell-based, human
[1] = system: LNCap cell line; assay: Cancer cell growth inhibition, SRB dye assay (single agents and 50:50 IC50 mixtures)
Protocol: (§1) Cancer cells were seeded the day before application of drug in triplicate or quadruplicate in 96-well plates, allowed to grow in the presence of drug for 6 days before cell growth relative to untreated control wells was determined with a dye assay. Cells were seeded in triplicate or quadruplicate at 3-4,000 per microtitre well in 90 μl of RPMI culture medium/10% foetal calf serum/penicillin, streptomycin mix, treated with 10 μl of drug (prepared in a dilution plate at 10× concentration required), and allowed to grow until the controls were nearly confluent (6 days). SRB: Plates were washed with PBS, fixed with methylated spirits, washed with tap water and stained with 50 μL/well of SRB solution (sulforhodamine, 0.4% in 1% acetic acid), followed by washing with tap water and 1% acetic acid, solubilisation in Tris and absorbance read at 564 nm in an ELISA reader. Data was collected using ELISA plate reader software—SOFTmax PRO3.1.2, then imported into EXCEL. The mean and SD of replicates were calculated as a % of control, after subtraction of the blank value (wells with no cells). A graph was plotted of % control vs dose of agent and IC50 (half maximal inhibitory concentration) values determined. […] The cells were allowed to grow until the controls were nearly confluent after 5-6 days. Plates were then washed with PBS, fixed in ethanol and stained with 50 μL/well of SRB solution (sulforhodamine, 0.4% in 1% acetic acid), followed by washing with 1% acetic acid and solubilisation in Tris. The absorbance was read at 564 nm using an ELISA reader. […] Cambridge University Press). […] The inhibitory data from each mixture was used to determine an IC50 of IC50 value, where the concentrations used were the Multiplying Factor values. In order to determine the actual IC50 contribution of each component in the two-component mixture, the IC50 of IC50 value was multiplied by the IC50 of the individual component. This can then be used to determine the reduction in IC50 contribution (ie, reduction in dose) of the chemotherapeutic agent due to the presence of the steroid saponin in the mixture. A simpler way of determining the reduction in dose is to use the following simple formula: […]

[2] = system: MCF7 cell line; assay: as above
Protocol: as §1

[3] = system: A549 cell line; assay: as above; settings: Homo sapiens, 144 h, Example 4, value used to make up 50:50 IC50 mixtures, read-out: IC50 values used in assay
Protocol: (§2) Cancer cells were seeded the day before application of drug in triplicate or quadruplicate in 96-well plates, allowed to grow in the presence of drug for 6 days before cell growth relative to untreated control wells was determined with a dye assay.
(§3) Cells were seeded in triplicate or quadruplicate at 3-4,000 per microtitre well in 90 μl of RPMI culture medium/10% foetal calf serum/penicillin, streptomycin mix, treated with 10 μl of drug (prepared in a dilution plate at 10× concentration required), and allowed to grow until the controls were nearly confluent (6 days).
(§4) SRB: Plates were washed with PBS, fixed with methylated spirits, washed with tap water and stained with 50 μL/well of SRB solution (sulforhodamine, 0.4% in 1% acetic acid), followed by washing with tap water and 1% acetic acid, solubilisation in Tris and absorbance read at 564 nm in an ELISA reader.
(§5) Data was collected using ELISA plate reader software—SOFTmax PRO3.1.2, then imported into EXCEL. The mean and SD of replicates were calculated as a % of control, after subtraction of the blank value (wells with no cells). A graph was plotted of % control vs dose of agent and IC50 (half maximal inhibitory concentration) values determined.
(§6) Tumour cells were seeded in duplicate in 96-well plates at 2-5,000 per microtitre well containing RPMI culture medium/10% foetal calf serum. The cells were allowed to grow until the controls were nearly confluent after 5-6 days. Plates were then washed with PBS, fixed in ethanol and stained with 50 μL/well of SRB solution (sulforhodamine, 0.4% in 1% acetic acid), followed by washing with 1% acetic acid and solubilisation in Tris. The absorbance was read at 564 nm using an ELISA reader.
(§7) The IC50, or concentration required to inhibit cell growth by 50%, was determined from the percentage inhibition versus concentration data using the probit calculation methods of Finney (Finney D J (1971). Probit Analysis. 3rd Edition. Cambridge University Press).
(§8) The inhibitory data from each mixture was used to determine an IC50 of IC50 value, where the concentrations used were the Multiplying Factor values. In order to determine the actual IC50 contribution of each component in the two-component mixture, the IC50 of IC50 value was multiplied by the IC50 of the individual component. This can then be used to determine the reduction in IC50 contribution (ie, reduction in dose) of the chemotherapeutic agent due to the presence of the steroid saponin in the mixture. A simpler way of determining the reduction in dose is to use the following simple formula: […]

[4] = system: PC3, DU145, A549 and HT29 cell lines; assay: Cancer cell growth inhibition, IC50 values used in assay for four cell lines (Example 5); settings: Homo sapiens, value used to make up 50:50 IC50 mixtures
Protocol: as §6, §7
The cell seeding and ELISA plate methodology of Example 2 were used for determining inhibition of four cancer cell lines. IC50 values were determined for the steroid saponins dioscin, deltonin and prosapogenin A, and their mixtures with cisplatin, docetaxel, doxorubicin and vincristine, using PC3, DU145, A549 and HT29 cell lines.

[5] = system: K562 cell line; assay: Cancer cell growth inhibition, SRB dye assay (single agents and 50:50 IC50 mixtures); settings: Homo sapiens, 144 h, Example 6, value used to make up 50:50 IC50 mixtures, read-out: IC50 values used in assay
Protocol: as §2, §3, §4, §5, §6, §7, §8
The cell seeding and ELISA plate methodology of Example 2 were used for determining inhibition of the K562 cell line.

[6] = 50:50 IC50 mixture vs vincristine alone, Example 3
[7] = Homo sapiens, 144 h, Example 3, value used to make up 50:50 IC50 mixtures, read-out: IC50 values used in assay

With `C[C@@H]1CC[C@@]2(OC1)O[C@H]1C[C@H]3[C@@H]4CC=C5C[C@@H](O[C@@H]6O[C@H](CO)[C@@H](O[C@@H]7O[C@H](CO)[C@@H](O)[C@H](O)[C@H]7O)[C@H](O)[C@H]6O[C@@H]6O[C@@H](C)[C@H](O)[C@@H](O)[C@H]6O)CC[C@]5(C)[C@H]4CC[C@]3(C)[C@H]1[C@@H]2C` [Deltonin, diosgenin Rha2, [Glc4], Glc] the “Vincristine Dose Reduction” value [1, 6] was “consistent reduction in dosage”, the IC50 [1, 7] was 1000 nM and the “Vincristine Dose Reduction” value [2, 6] was “consistent reduction in dosage”. For the same molecule, the IC50 [2, 7] was 1000 nM, the IC50 [3] was 1000 nM and the IC50 [4] was 1000 nM. For the same molecule, the IC50 [5] was 1000 nM.
